Patent publication US6608058B2, “6-methylnicotinamide derivatives as antiviral agents” (Dong Wha Pharm. Ind. Co., Ltd., priority 2000, dated 2003)

Experiments:
HBV polymerase = assay: Inhibitory effect on the in vitro activities of HBV polymerase in reverse transcription (ELISA-type); type: biochemical
Excerpt: The present inventors submitted application for a patent concerning HBV polymerase genetically expressed in and separated from E. coli, the process of its preparation, and the method to measure the enzyme activities (KR 94-3918, KR 96-33998). In the present experiments HBV polymerase was used which had been expressed in E. coli as stated above.
The method used in the present invention to measure in vitro reverse transcribing activities of HBV polymerase is as follows. Basic principles are the same as those for ELISA, nucleotides with biotin- or digoxigenin- group are included as substrates and anti-DIG antibodies attached to peroxidase enzyme recognize the polymerized substrates.
To the wells coated with streptavidin, 20 μl of HBV polymerase, 20 μl of reaction mixture (10 μM each of DIG-UTP and Biotin-UTP, 46 mM Tris-HCl, 266 mM KCl, 27.5 mM MgCl2, 9.2 mM DTT substrate/primer hybrid), and 20 μl of test compound (added to […]) were added and allowed to react at 22° C. for 15 hrs. During this reaction, HBV polymerase catalyzes DNA synthesis, and digoxigenin and biotin attached to nucleotides form bonds to streptavidin coated on the bottom of wells. When the reaction was done, each well was washed with 250 μl of cleaning buffer (pH 7.0) for 30 seconds, which was repeated five times to remove remaining impurities. 200 μl of anti-DIG-POD antibody was added to each well and allowed to react for 1 hr at 37° C., and the wells were washed with cleaning buffer to remove impurities. 200 μl each of ABTS™, a substrate of peroxidase, was then added and allowed to react at room temperature for 30 min. Absorbancy was measured at 405 nm using ELISA reader.
The inhibitory effects in HBV polymerase activities for reverse transcription were calculated using the group without test compound as a control and the results are shown in Table 1 as follows.

[1] = target: T1, HIV reverse transcriptase (Human immunodeficiency virus type 1 group M subtype B, UniProt P04585); assay: Inhibitory effect on the in vitro HIV reverse transcriptase activity (non-radioactive RT assay kit); type: biochemical; conditions: for inhibition at 0.1 µg/mL: 0.1 μg/ml; for inhibition at 1 µg/mL: 1 μg/ml
T1 construct: purchased Boehringer Mannheim
Method: Non-radioactive reverse transcriptase assay kit (Boehringer Mannheim) was used in the measurement of in vitro transcriptase activities. 20 μl (40 ng) of HIV reverse transcriptase and 20 μl of reaction mixture containing matrix-primer hybrid poly(A)oligo(dT)15, DIG(digoxigenin)-dUTP, biotin-dUTP, dTTP were added to wells coated with streptavidin, and the test compounds prepared were also added at the final concentrations of 0.1 and 1 μ/ml and allowed to react at 37° C. for 1 hr. At this time, DNA is formed from RNA by the action of HIV reverse transcriptase, forming bonds with streptavidin coated on the bottom of wells through digoxigenin and biotin moieties attached to nucleotides.
When the reaction was completed, each well was washed with 250 μl of washing buffer (pH 7.0) for 30 sec. five times to remove remaining impurities. 200 μl of anti-DIG-POD […] was added to each well, then the mixture was allowed to react at 37° C. for 1 hr and washed as above to remove impurities. 200 μl of ABTS™, a substrate for peroxidase, was added to each well and the mixture was allowed to react at room temperature for 30 min. Absorbance at 405 nm was measured for each solution using ELISA reader to determine the inhibitory effect on the HIV reverse transcriptase activities. The percentage of inhibition in the activity of HIV reverse transcriptase was calculated using the group without test compound as control and the results are represented in Table 3.

SMILES | Inhibitory activity on HBV-RT (%) (HBV polymerase; 0.01 μg/ml) | Inhibitory activity on HBV-RT (%) (HBV polymerase; 0.1 μg/ml) | Inhibitory activity on HBV-RT (%) (HBV polymerase; 1 μg/ml) | inhibition at 0.1 µg/mL [1] [%] | inhibition at 1 µg/mL [1] [%]
CNC(=O)c1ccc(C)nc1Nc1ccc2cn[nH]c2c1 [Example 7, 2-(1H-6-indazolylamino)-6-methyl-N-methylnicotinamide] | 21 | 50 | 70 | – | –
Cc1ccc(C(=O)N(N)C(=O)c2cccnc2)c(Nc2ccc3cn[nH]c3c2)n1 [Example 22, 2-(1H-6-indazolylamino)-6-methyl-N-(3-pyridylcarbonyl)-3-pyridinecarbohydrazide] | 26 | 54 | 85 | – | –
Cc1ccc(C(=O)Nc2cccnc2)c(Nc2ccc3cn[nH]c3c2)n1 [Example 18, 2-(1H-6-indazolylamino)-6-methyl-N-(3-pyridyl)nicotinamide] | 18 | 40 | 69 | – | –
Cc1ccc(C(=O)NN2CCOCC2)c(Nc2ccc3[nH]ncc3c2)n1 [Example 2, 2-(1H-5-indazolylamino)-6-methyl-N-(4-morpholinyl)nicotinamide] | 42 | 57 | 88 | 49 | 84
Cc1ccc(C(=O)NCc2cccnc2)c(Nc2ccc3[nH]ncc3c2)n1 [Example 5, 2-(1H-5-indazolylamino)-6-methyl-N-(3-pyridylmethyl)nicotinamide] | 37 | 43 | 65 | 38 | 69
Cc1ccc(C(=O)NCCN2CCOCC2)c(Nc2ccc3cn[nH]c3c2)n1 [Example 14, 2-(1H-6-indazolylamino)-6-methyl-N-[2-(4-morpholinyl)ethyl]nicotinamide] | 52 | 68 | 91 | 41 | 70
Cc1ccc(C(=O)NCCc2ccccn2)c(Nc2ccc3[nH]ncc3c2)n1 [Example 6, 2-(1H-5-indazolylamino)-6-methyl-N-(2-pyridylethyl)nicotinamide] | 40 | 55 | 84 | 45 | 77
Cc1ccc(C(=O)NC(C)C)c(Nc2ccc3cn[nH]c3c2)n1 [Example 8, 2-(1H-6-indazolylamino)-N-isopropyl-6-methylnicotinamide] | 23 | 54 | 78 | 28 | 65
Cc1ccc(C(=O)N(N)c2ccccn2)c(Nc2ccc3cn[nH]c3c2)n1 [Example 21, 2-(1H-6-indazolylamino)-6-methyl-N-(2-pyridyl)-3-pyridinecarbohydrazide] | 30 | 50 | 86 | 49 | 75
Cc1ccc(C(=O)N[C@H]2CC[C@H](O)CC2)c(Nc2ccc3[nH]ncc3c2)n1 [Example 3, N-(Trans-4-hydroxy-1-cyclohexyl)-2-(1H-5-indazolylamino)-6-methylnicotinamide] | 53 | 61 | 80 | 51 | 80
Cc1ccc(C(=O)NCCO)c(Nc2ccc3cn[nH]c3c2)n1 [Example 10, N-(2-hydroxyethyl)-2-(1H-6-indazolylamino)-6-methylnicotinamide] | 48 | 62 | 89 | – | –
Cc1ccc(C(=O)NC(C)(C)C)c(Nc2ccc3cn[nH]c3c2)n1 [Example 9, N-(t-butyl)-2-(1H-6-indazolylamino)-6-methylnicotinamide] | 20 | 48 | 65 | – | –
Cc1ccc(C(=O)NN2CCOCC2)c(Nc2ccc3cn[nH]c3c2)n1 [Example 16, 2-(1H-6-indazolylamino)-6-methyl-N-(4-morpholinyl)nicotinamide] | 35 | 51 | 78 | – | –
Cc1ccc(C(=O)NC2CC2)c(Nc2ccc3cn[nH]c3c2)n1 [Example 11, N-cyclopropyl-2-(1H-6-indazolylamino)-6-methylnicotinamide] | 32 | 54 | 84 | 45 | 82
Cc1ccc(C(=O)NC(C)C)c(Nc2ccc3[nH]ncc3c2)n1 [Example 1, 2-(1H-5-indazolylamino)-N-isopropyl-6-methylnicotinamide] | 30 | 49 | 78 | 42 | 75
Cc1ccc(C(=O)N2CCOCC2)c(Nc2ccc3cn[nH]c3c2)n1 [Example 23, 2-(1H-6-indazolylamino)-6-methyl-3-(4-morpholinylcarbonyl)pyridine] | 12 | 40 | 62 | – | –
Cc1ccc(C(=O)NCCN2CCCCC2)c(Nc2ccc3cn[nH]c3c2)n1 [Example 15, 2-(1H-6-indazolylamino)-6-methyl-N-[2-(1-piperidinyl)ethyl]nicotinamide] | 12 | 57 | 87 | 43 | 78
Cc1ccc(C(=O)NCCN(C)C)c(Nc2ccc3cn[nH]c3c2)n1 [Example 12, N-[2-(dimethylamino)ethyl]-2-(1H-6-indazolylamino)-6-methylnicotinamide] | 49 | 60 | 86 | – | –
Cc1ccc(C(=O)NCc2cccnc2)c(Nc2ccc3cn[nH]c3c2)n1 [Example 19, 2-(1H-6-indazolylamino)-6-methyl-N-(3-pyridylmethyl)nicotinamide] | 32 | 48 | 76 | – | –
Cc1ccc(C(=O)NCCCn2ccnc2)c(Nc2ccc3cn[nH]c3c2)n1 [Example 20, N-[3-(1H-1-imidazolyl)propyl]-2-(1H-6-indazolylamino)-6-methylnicotinamide] | 47 | 59 | 88 | 47 | 88
CCN(CC)CCNC(=O)c1ccc(C)nc1Nc1ccc2cn[nH]c2c1 [Example 13, N-[2-(diethylamino)ethyl]-2-(1H-6-indazolylamino)-6-methylnicotinamide] | 15 | 45 | 54 | – | –
Cc1ccc(C(=O)NN2CCN(C)CC2)c(Nc2ccc3cn[nH]c3c2)n1 [Example 17, 2-(1H-6-indazolylamino)-6-methyl-N-(4-methyl-1-piperazinyl)nicotinamide] | 24 | 56 | 86 | 50 | 84
Cc1ccc(C(=O)Nc2cccnc2)c(Nc2ccc3[nH]ncc3c2)n1 [Example 4, 2-(1H-5-indazolylamino)-6-methyl-N-(3-pyridyl)nicotinamide] | 50 | 64 | 92 | 40 | 64
